Data on five molecules can be found in article PMC3813140, “Lipophilicity Examination of Some ACE inhibitors andHydrochlorothiazide on Cellulose in RP Thin-Layer Chromatography” (Iranian Journal of Pharmaceutical Research : IJPR, 2012).

A short description of the series: RP-TLC on cellulose layers, lipophilicity evaluation with water-organic modifier binary solvent systems. The series is classed as physicochemical. To be noted: for relative lipophilicity among the investigated substances: RP-TLC on cellulose, all mobile phases; for hRF / - m (slope, specific hydrophobic surface area) / C0 (hydrophobicity parameter, C0 = - RM0/m) / RM0 (intercept, hydrophobicity parameter): cellulose; for - m (slope, specific hydrophobic surface area) / C0 (hydrophobicity parameter, C0 = - RM0/m) / RM0 (intercept, hydrophobicity parameter): organic modifier 10-30%. How it is done: The three, water-organic modifier, binary solvent systems were used with different volume fractions. All components of mobile phases were of analytical grade of purity.
The TLC experiments were performed on 10 cm × 10 cm cellulose (Art. 105552, Merck, Germany) layers.
After the development, the detection was performed by exposing the plates to iodine vapour. All investigations were performed at room temperature (22 ± 2 °C).
The RF -values were calculated according to the relationship:
RF = Distance of spot from origin / Distance of mobile phase front from origin
Here, RM-values were calculated for each solute in each mobile phase according to the Bate-Smith and Westall equation ([29]):
RM=log (1/RF-1) (Equation 1)
In an aim to establish the reversed-phase TLC on cellulose, the mobile phase had to be more polar than the cellulose.
The retention behavior of biological active substances investigated in RP-TLC can be presented as the relationship between the RM-values and the content of organic modifier in mobile phase through the linear Equation ([16]):
RM = R^0M + mC (Equation 2)
The value of the intercept, R^0M, represents the lipophilicity of the examined substance and the value of the slope, m, corresponds to the specific hydrophobic surface area of this substance, while C represents the volume fraction of the organic modifier in mobile phase.
By the analogy through the hydrophobicity parameter of φ0 ([6], [7]), previously defined for the HPLC method as the concentration of the organic modifier in the mobile phase for which the distribution of the analyzed substance between the mobile and stationary phase was equal (1:1) another hydrophobicity parameter, C0, can be calculated. The hydrophobicity parameter, C0, represents the volume fraction of the organic modifier in mobile phase where RM = 0 ([11]-[12]) and it can be calculated as C0 = - R^0M / m.

[1] abbreviates: water-acetone, 10 vol% organic modifier.
The mark [2] stands for this setting: water-acetone, 15 vol% organic modifier.
Where [3] appears, read: water-acetone, 20 vol% organic modifier.
[4] abbreviates: water-acetone, 25 vol% organic modifier.
The mark [5] stands for this setting: water-acetone, 30 vol% organic modifier.
Where [6] appears, read: water-ethanol, 10 vol% organic modifier.
Where [7] appears, read: water-ethanol, 15 vol% organic modifier.
The mark [8] stands for this setting: water-ethanol, 20 vol% organic modifier.
Where [9] appears, read: water-ethanol, 25 vol% organic modifier.
Setting [10] is: water-ethanol, 30 vol% organic modifier.
[11] abbreviates: water-methanol, 10 vol% organic modifier.
Setting [12] is: water-methanol, 15 vol% organic modifier.
[13] abbreviates: water-methanol, 20 vol% organic modifier.
[14] abbreviates: water-methanol, 25 vol% organic modifier.
Setting [15] is: water-methanol, 30 vol% organic modifier.

Consider `NCCCC[C@H](NC(CCc1ccccc1)C(=O)O)C(=O)N1CCC[C@H]1C(=O)O.O.O` (stereo partly drawn) [Substance 3, (S)-1-[N^2-(1-carboxy-3-phenylpropyl)-L-lysyl]-L-proline dihydrate], for which the “relative lipophilicity among the investigated substances” value is “most hydrophilic”. Under setting [1], this molecule came in with a hRF of 86. The hRF under setting [2] is given as 90. For the same molecule, the hRF under setting [3] turned out to be 92. The same molecule had a hRF under setting [4] of 94. Moreover, under setting [5], the hRF was 96. Further, the “- m (slope, specific hydrophobic surface area)” value (water-acetone) came to 2.849 ± 0.001. The hRF under setting [6] stood at 91. For the same molecule, the hRF under setting [7] was 93. The same molecule had a hRF under setting [8] of 95. This molecule returned a hRF under setting [9] of 96. Under setting [10], this molecule showed a hRF of 97. Further, the “- m (slope, specific hydrophobic surface area)” value (water-ethanol) is on record as 2.533 ± 0.001. This molecule yielded a hRF under setting [11] of 85. Moreover, the hRF under setting [12] was determined as 88. In addition, the hRF under setting [13] is given as 91. The molecule also displayed a hRF under setting [14] of 92. The hRF under setting [15] was 93. For the same molecule, where the note is “water-methanol”, the “- m (slope, specific hydrophobic surface area)” value was determined as 1.871 ± 0.002.
On to `CCOC(=O)C(CCc1ccccc1)N[C@@H](C)C(=O)N1CCC[C@H]1C(=O)O` (stereo partly drawn) [Substance 1, (S)-1-[N-[1-(ethoxycarbonyl)-3-phenylpropyl]-L-alanyl]-L-proline], for which the hRF runs as follows: under setting [1], 78; under setting [2], 84; under setting [3], 86; under setting [4], 89; under setting [5], 93; under setting [6], 81. The hRF reads like this: under setting [7], 85; under setting [8], 90; under setting [9], 92; under setting [10], 93; under setting [11], 78; under setting [12], 80. Also, the hRF reads like this: under setting [13], 83; under setting [14], 86; under setting [15], 88. For the same molecule, the “- m (slope, specific hydrophobic surface area)” value (water-acetone) came out at 2.671 ± 0.002; the “- m (slope, specific hydrophobic surface area)” value (water-ethanol) was found to be 2.589 ± 0.002; the “- m (slope, specific hydrophobic surface area)” value (water-methanol) turned out to be 1.635 ± 0.001.
`CCOC(=O)[C@H](CCc1ccccc1)N[C@H]1CCCN2CCC[C@@H](C(=O)O)N2C1=O` [Substance 4, [1S-[1α,9α (R*)]]-9-[[1-(ethoxycarbonyl)-3-phenylpropyl]amino] octahydro-10-oxo-6H-pyridazino [1,2-a] [1,2] diazepine-1-carboxylic acid monohydrate]: the hRF is, setting by setting: under setting [1], 66; under setting [2], 70; under setting [3], 73; under setting [4], 77; under setting [5], 80; under setting [6], 73. Also, the hRF turned out to be 76 under setting [7]; 79 under setting [8]; 83 under setting [9]; 88 under setting [10]; 60 under setting [11]; 68 under setting [12]. For the same molecule, the hRF is, setting by setting: under setting [13], 75; under setting [14], 80; under setting [15], 85. The “- m (slope, specific hydrophobic surface area)” value reads like this: (water-acetone) 1.569 ± 0.001; (water-ethanol) 2.109 ± 0.002; (water-methanol) 2.858 ± 0.001. In addition, the “C0 (hydrophobicity parameter, C0 = - RM0/m)” value (water-methanol) is 0.036. Also, under “water-methanol”, the “RM0 (intercept, hydrophobicity parameter)” value came out at 0.104 ± 0.010.
Take `CCOC(=O)[C@H](CCc1ccccc1)N[C@@H](C)C(=O)N1Cc2ccccc2C[C@H]1C(=O)O` [Substance 2, [3S-[2[R* (R*)],3R*]]-2-[2-[[1-(ethoxycarbonyl)-3-phenylpropyl]amino]-1-oxopropyl]-1,2,3,4-tetrahydro-3-isoquinolinecarboxylic acid]: the “relative lipophilicity among the investigated substances” value is recorded as “most lipophilic”. Also, the hRF under setting [1] is on record as 55. Also, the hRF under setting [2] was 60. Moreover, under setting [3], the hRF is 66. The same molecule displayed a hRF under setting [4] of 70. Under setting [5], the hRF amounted to 73. Moreover, where the note is “water-acetone”, the “- m (slope, specific hydrophobic surface area)” value was found to be 1.763 ± 0.001; the “C0 (hydrophobicity parameter, C0 = - RM0/m)” value was 0.047; the “RM0 (intercept, hydrophobicity parameter)” value is 0.082 ± 0.020. This molecule came in with a hRF under setting [6] of 65. This molecule also came in with a hRF under setting [7] of 70. Besides, the hRF under setting [8] was 74. The molecule also gave a hRF under setting [9] of 79. This molecule showed a hRF under setting [10] of 82. Also, the “- m (slope, specific hydrophobic surface area)” value (water-ethanol) was found to be 1.974 ± 0.001. For the same molecule, the hRF under setting [11] was determined as 53. Under setting [12], this molecule gave a hRF of 58. Under setting [13], this molecule came in with a hRF of 65. Under setting [14], this molecule displayed a hRF of 68. The hRF under setting [15] came out at 71. Moreover, for the setting “water-methanol”, the “- m (slope, specific hydrophobic surface area)” value worked out at 1.721 ± 0.001; the “C0 (hydrophobicity parameter, C0 = - RM0/m)” value turned out to be 0.063; the “RM0 (intercept, hydrophobicity parameter)” value was found to be 0.109 ± 0.032.
As for `NS(=O)(=O)c1cc2c(cc1Cl)NCNS2(=O)=O` [HCTZ, 6-chloro-3,4-dihydro-2H-1,2,4-benzothiadiazine-7-sulfonamide,1,1-dioxide], the hRF runs as follows: under setting [1], 83; under setting [2], 85; under setting [3], 88; under setting [4], 92; under setting [5], 95; under setting [6], 85. Further, the hRF reads like this: under setting [7], 87; under setting [8], 90; under setting [9], 93; under setting [10], 95; under setting [11], 80; under setting [12], 83. For the same molecule, the hRF by setting is: under setting [13], 85; under setting [14], 90; under setting [15], 92. Further, the “- m (slope, specific hydrophobic surface area)” value came to 2.975 ± 0.004 (water-acetone), 2.697 ± 0.002 (water-ethanol) and 2.366 ± 0.023 (water-methanol).
